Read-outs that look alike come from different tables or passages of the source.
How the values were obtained:
[1] = tested on: HeLa cells; assay: cells; assay type: cell-based; conditions: HeLa, read-out: CellCycle G2/M
[2] = tested on: HCT116 cells treated with a GSK3β inhibitor; assay: cells; assay type: cell-based
[3] = tested on: INS-1E cells; assay: cells; assay type: cell-based, rat; conditions: read-out: Insulin Secretion
[4] = target: T1, hJAK2 (Homo sapiens, UniProt O60674); assay: Cerep LANCE kinase assay hJAK2 (S1 assay 33); assay type: biochemical; conditions: read-out: JAK2
T1 construct: purchased Cerep (LANCE kinase assay platform, contract assay)

[5] = tested on: endothelial tube formation in co-cultures of ECFCs and ADSCs treated with VEGF; assay: cells; assay type: cell-based, human; conditions: read-out: Anti-Angiogenesis
[6] = tested on: DLD-1; assay: cells; assay type: cell-based
[7] = tested on: NCI-H716 cells; assay: cells; assay type: cell-based, Human
[8] = tested on: HCT116; assay: cells; assay type: cell-based
[9] = tested on: SW480; assay: cells; assay type: cell-based
[10] = tested on: nuclear β-catenin in C2C12 cells; assay: cells; assay type: cell-based
[11] = target: T2, hFLT3 (Homo sapiens, UniProt P36888); assay: Cerep LANCE kinase assay hFLT3 (S1 assay 35); assay type: biochemical; conditions: read-out: FLT3
T2 construct: purchased Cerep (LANCE kinase assay platform, contract assay)

[12] = target: T3, hGSK3b (Homo sapiens, UniProt P49841); assay: Cerep LANCE kinase assay hGSK3b (S1 assay 34); assay type: biochemical; conditions: read-out: GSK3b
T3 construct: purchased Cerep (LANCE kinase assay platform, contract assay)

[13] = target: T4, hKDR (Homo sapiens, UniProt P35968); assay: Cerep LANCE kinase assay hKDR (S1 assay 32); assay type: biochemical; conditions: read-out: KDR
T4 construct: purchased Cerep (LANCE kinase assay platform, contract assay)

[14] = target: T5, hp70S6K1 (RPS6KB1) (Homo sapiens, UniProt P23443); assay: Cerep LANCE kinase assay hp70S6K1 (S1 assay 31); assay type: biochemical; conditions: read-out: p70S6K1
T5 construct: purchased Cerep (LANCE kinase assay platform, contract assay)

[15] = GSK3b inhibitor pretreated, read-out: GSK3b inh pretreated_Viability ATP HCT116
[16] = IC50 / EC50, endothelial tube area, ADSC/ECFC co-culture
[17] = basal, read-out: Basal_Viability ATP DLD-1
[18] = IC50 / EC50, NCI-H716, read-out: GLP 1 Secretion
[19] = basal, read-out: Basal_Viability ATP HCT116
[20] = basal, read-out: Basal_Viability ATP SW480
[21] = IC50 / EC50, C2C12 beta-catenin translocation, read-out: Wnt Pathway
[22] = S2 Table, 20 = no response at highest concentration
[23] = HCT116 pretreated with GSK3b inhibitor, read-out: GSK3b inh pretreated_Viability ATP HCT116
[24] = S2 Table, module primary assay, 20 / 20.1 codes per legend
[25] = basal, DLD-1, read-out: Basal_Viability ATP DLD-1
[26] = S2 Table, module primary assay, 20 / 20.1 codes per legend, read-out: GLP 1 Secretion
[27] = basal, HCT116, read-out: Basal_Viability ATP HCT116
[28] = basal, SW480, read-out: Basal_Viability ATP SW480

T2 sequence (P36888 27-993): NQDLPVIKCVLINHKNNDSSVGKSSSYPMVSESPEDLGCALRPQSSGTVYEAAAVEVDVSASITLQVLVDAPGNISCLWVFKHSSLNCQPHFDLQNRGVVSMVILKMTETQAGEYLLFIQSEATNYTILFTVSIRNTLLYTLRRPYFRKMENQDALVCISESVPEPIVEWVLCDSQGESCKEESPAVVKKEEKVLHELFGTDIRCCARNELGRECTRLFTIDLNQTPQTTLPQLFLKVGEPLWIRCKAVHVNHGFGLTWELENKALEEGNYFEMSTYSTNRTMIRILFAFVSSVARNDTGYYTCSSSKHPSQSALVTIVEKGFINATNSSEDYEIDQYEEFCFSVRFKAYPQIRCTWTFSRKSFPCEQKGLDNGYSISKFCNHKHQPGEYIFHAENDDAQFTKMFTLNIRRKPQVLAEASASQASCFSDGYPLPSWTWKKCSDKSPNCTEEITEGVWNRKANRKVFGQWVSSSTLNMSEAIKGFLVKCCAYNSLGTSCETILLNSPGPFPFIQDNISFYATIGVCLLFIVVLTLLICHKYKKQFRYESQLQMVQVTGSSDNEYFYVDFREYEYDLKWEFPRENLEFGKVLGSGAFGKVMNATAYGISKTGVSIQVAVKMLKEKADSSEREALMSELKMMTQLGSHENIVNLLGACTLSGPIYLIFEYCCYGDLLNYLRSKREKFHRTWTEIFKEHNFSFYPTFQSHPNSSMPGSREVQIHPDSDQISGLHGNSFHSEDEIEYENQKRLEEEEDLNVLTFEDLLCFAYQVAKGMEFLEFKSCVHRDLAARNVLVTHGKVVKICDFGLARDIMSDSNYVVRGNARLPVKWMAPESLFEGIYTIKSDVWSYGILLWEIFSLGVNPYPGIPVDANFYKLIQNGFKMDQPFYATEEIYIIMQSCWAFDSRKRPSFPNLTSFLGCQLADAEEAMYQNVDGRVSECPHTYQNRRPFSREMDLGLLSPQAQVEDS
T4 sequence (P35968 20-1356): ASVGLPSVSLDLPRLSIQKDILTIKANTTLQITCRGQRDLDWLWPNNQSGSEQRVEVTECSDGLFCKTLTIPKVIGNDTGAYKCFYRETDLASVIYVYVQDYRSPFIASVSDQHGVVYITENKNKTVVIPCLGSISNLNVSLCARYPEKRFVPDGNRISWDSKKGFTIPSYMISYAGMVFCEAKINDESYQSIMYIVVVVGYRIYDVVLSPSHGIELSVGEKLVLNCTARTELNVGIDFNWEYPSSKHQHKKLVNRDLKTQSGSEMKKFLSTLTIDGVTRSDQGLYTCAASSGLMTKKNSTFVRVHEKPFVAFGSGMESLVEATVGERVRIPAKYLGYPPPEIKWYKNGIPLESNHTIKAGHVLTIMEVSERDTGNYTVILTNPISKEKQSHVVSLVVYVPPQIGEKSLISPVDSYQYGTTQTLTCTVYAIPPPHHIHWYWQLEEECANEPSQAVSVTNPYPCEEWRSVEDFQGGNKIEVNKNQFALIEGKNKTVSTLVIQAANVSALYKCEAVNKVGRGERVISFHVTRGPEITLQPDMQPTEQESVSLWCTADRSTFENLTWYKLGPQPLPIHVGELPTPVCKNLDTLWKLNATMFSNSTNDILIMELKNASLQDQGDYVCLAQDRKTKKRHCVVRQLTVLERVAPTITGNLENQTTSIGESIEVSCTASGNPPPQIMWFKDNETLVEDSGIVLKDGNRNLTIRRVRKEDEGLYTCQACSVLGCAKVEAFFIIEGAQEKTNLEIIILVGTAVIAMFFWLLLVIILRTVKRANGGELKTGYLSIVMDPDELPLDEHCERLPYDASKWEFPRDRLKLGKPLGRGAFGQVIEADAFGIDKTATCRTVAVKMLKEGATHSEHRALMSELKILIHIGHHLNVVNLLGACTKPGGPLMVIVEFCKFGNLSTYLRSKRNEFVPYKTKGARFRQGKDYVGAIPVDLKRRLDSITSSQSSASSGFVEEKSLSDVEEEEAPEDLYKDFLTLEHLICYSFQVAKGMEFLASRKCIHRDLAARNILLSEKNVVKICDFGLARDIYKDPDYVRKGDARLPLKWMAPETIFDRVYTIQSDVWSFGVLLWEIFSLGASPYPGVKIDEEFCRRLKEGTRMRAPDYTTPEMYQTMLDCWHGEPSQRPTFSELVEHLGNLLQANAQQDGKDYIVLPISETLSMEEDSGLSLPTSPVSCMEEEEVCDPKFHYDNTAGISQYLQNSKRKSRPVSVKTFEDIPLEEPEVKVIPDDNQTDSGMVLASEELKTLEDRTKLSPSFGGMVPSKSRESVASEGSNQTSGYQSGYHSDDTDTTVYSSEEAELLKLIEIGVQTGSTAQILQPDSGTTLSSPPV
T3 sequence (P49841 whole entry): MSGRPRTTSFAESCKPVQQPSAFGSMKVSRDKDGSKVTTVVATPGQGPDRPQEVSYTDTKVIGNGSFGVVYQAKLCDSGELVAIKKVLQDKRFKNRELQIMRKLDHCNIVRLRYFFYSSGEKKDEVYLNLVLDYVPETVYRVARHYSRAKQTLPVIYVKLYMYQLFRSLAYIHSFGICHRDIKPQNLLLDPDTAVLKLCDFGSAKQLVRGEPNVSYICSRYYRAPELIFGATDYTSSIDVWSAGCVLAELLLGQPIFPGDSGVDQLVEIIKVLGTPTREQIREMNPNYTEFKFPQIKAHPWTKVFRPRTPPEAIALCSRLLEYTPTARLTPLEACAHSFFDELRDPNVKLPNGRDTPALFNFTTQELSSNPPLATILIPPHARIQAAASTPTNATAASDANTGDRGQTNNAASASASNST
T5 sequence (P23443 whole entry): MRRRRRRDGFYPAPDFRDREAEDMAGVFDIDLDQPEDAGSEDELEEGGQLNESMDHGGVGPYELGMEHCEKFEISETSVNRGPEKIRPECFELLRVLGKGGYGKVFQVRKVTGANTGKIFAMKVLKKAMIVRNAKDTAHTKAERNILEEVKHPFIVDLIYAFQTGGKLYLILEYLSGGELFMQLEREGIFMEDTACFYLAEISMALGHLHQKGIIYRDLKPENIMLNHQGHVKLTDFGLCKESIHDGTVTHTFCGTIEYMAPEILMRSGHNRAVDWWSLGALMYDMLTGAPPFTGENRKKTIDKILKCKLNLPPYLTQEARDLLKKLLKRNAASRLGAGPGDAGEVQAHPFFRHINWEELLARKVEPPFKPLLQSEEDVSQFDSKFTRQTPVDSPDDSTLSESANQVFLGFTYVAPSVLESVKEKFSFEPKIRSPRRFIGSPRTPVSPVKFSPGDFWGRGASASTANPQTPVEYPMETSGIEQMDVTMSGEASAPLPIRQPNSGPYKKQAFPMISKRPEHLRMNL
T1 sequence (O60674 whole entry): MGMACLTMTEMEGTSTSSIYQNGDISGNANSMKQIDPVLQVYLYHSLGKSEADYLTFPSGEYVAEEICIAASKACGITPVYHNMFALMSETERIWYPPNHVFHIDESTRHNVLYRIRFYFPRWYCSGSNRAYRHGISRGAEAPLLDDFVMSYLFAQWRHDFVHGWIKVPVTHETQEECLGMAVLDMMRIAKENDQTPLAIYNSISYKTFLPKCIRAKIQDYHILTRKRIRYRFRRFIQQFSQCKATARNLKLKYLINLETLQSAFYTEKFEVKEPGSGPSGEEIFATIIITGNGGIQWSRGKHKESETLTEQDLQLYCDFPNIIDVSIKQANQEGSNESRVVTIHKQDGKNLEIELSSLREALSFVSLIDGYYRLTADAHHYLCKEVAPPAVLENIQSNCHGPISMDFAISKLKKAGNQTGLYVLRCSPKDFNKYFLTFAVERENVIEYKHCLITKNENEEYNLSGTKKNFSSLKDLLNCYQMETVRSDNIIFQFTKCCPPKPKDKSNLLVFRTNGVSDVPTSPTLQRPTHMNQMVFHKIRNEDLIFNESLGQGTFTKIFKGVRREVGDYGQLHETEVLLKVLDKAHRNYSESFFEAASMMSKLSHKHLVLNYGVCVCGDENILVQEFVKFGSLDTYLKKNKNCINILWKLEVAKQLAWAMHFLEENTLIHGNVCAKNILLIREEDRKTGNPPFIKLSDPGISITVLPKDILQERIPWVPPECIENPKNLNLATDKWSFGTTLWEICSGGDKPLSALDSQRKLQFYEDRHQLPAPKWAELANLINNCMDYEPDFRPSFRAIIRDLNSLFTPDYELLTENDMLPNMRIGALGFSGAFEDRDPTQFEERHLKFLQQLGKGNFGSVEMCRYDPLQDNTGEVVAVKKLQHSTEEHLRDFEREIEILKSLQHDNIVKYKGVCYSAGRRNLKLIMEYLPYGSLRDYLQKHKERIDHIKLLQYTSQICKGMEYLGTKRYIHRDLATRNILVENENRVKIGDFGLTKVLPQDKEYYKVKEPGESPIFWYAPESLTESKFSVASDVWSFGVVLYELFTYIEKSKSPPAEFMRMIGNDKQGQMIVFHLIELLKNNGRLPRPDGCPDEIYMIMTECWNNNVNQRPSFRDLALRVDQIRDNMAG

SMILES	EC50 ([1]; IC50 / EC50)	IC50 [2, 15]	EC50 ([3]; IC50 / EC50, INS-1E)	IC50 [4]	IC50 [5, 16]	IC50 [6, 17]	EC50 [7, 18]	IC50 [8, 19]	IC50 [9, 20]	EC50 [10, 21]	IC50 [11]	IC50 [12]	IC50 [13]	IC50 [14]	EC50 [1, 22]	IC50 [2, 23]	EC50 [3, 24]	IC50 ([4]; kinase assay)	IC50 [6, 25]	EC50 [7, 26]	other results
C[C@@H]1C[C@@H]([C@H](O)CC2CC(=O)NC(=O)C2)C(=O)[C@@H](C)C1	> 10 µM	1.02 µM	> 10 µM	> 20 µM	1.15 µM	3.57 µM	> 10 µM	2.02 µM	3.04 µM	> 10 µM	> 20 µM	> 20 µM	> 20 µM	> 20 µM							
COC(=O)c1nc(Cl)c(Cl)nc1N															0.511 µM	0.296 µM	> 10 µM	> 20 µM	0.835 µM	> 10 µM	IC50 [5]: 0.865 µM; IC50 [8, 27]: 0.327 µM; IC50 [9, 28]: 0.88 µM; EC50 ([10]; read-out: Wnt Pathway): 0.157 µM; IC50 ([11]; kinase assay): 2.86 µM; IC50 ([12]; kinase assay): > 20 µM; IC50 ([13]; kinase assay): > 20 µM; IC50 ([14]; kinase assay): > 20 µM
Cc1cc(O)c2ccccc2c1O [2-Methyl-1,4-naphthalenediol]	> 10 µM	9.45 µM	> 10 µM	> 20 µM	4.89 µM	10 µM	> 10 µM	1.49 µM	7.08 µM	1.75 µM	> 20 µM	19.1 µM	18.4 µM	> 20 µM							
C[n+]1c2cc(N)ccc2cc2ccc(N)cc21 [Acriflavinium chloride]															> 10 µM	4.36 µM	> 10 µM	> 20 µM	4.03 µM	> 10 µM	IC50 ([5]; S2 Table, module primary assay, 20 = no response at highest concentration, 20.1 = inactive in single concentration testing): > 10 µM; IC50 [8, 27]: 10.3 µM; IC50 [9, 28]: 1.26 µM; EC50 ([10]; read-out: Wnt Pathway): 1.6 µM; IC50 ([11]; kinase assay): > 20 µM; IC50 ([12]; kinase assay): > 20 µM; IC50 ([13]; kinase assay): > 20 µM; IC50 ([14]; kinase assay): 6.57 µM
Nc1ncnc2c1ncn2CCOCP(=O)(O)O [Adefovir]				> 20 µM							> 20 µM	> 20 µM	> 20 µM	> 20 µM							EC50 ([1]; Homo sapiens): > 10 µM; IC50 ([2]; Homo sapiens, HCT-116, read-out: GSK3b inh pretreated_Viability ATP HCT116): 0.584 µM; EC50 ([3]; Rattus norvegicus, INS-1E): > 10 µM; IC50 ([5]; Homo sapiens): 0.391 µM; IC50 ([6]; Homo sapiens, DLD-1, read-out: Basal_Viability ATP DLD-1): 2.68 µM; EC50 ([7]; Homo sapiens, NCI-H716, read-out: GLP 1 Secretion): > 10 µM; IC50 ([8]; Homo sapiens, HCT-116, read-out: Basal_Viability ATP HCT116): 9.01 µM; IC50 ([9]; Homo sapiens, SW480, read-out: Basal_Viability ATP SW480): 2.77 µM; EC50 ([10]; Mus musculus, C2C12, read-out: Wnt Pathway): 0.387 µM
